The values that follow are results of earlier work, collected in patent publication US12697292B2, “Method for treating human hair with agents containing mixtures of organic C1-C6 alkoxy siloxanes” (Henkel AG & Co. KGaA, priority 2021, dated 2026).

The conditions of this data set: 25° C.

As for `CCN(Cc1cccc(S(=O)(=O)[O-])c1)c1ccc(C(=C2C=CC(=[N+](CC)Cc3cccc(S(=O)(=O)[O-])c3)C=C2)c2ccccc2S(=O)(=O)[O-])cc1.[Na+].[Na+]` [Acid Blue 9], the water solubility entry is “more than 20 wt. %”.
`O=S(=O)([O-])c1ccc(N=Nc2c(O)ccc3ccccc23)cc1.[Na+]` [Acid Orange 7, sodium salt of 4-[(2-hydroxy-1-naphthyl)azo] benzene sulphonate]: the water solubility result is “more than 7 g/L”.
For the compound `Nc1cc(S(=O)(=O)[O-])cc2cc(S(=O)(=O)[O-])c(N=Nc3ccccc3)c(O)c12.[Na+].[Na+]` [Acid Red 33, dianhydro salt of 5-amino-4-hydroxy-3-(phenylazo)-naphthalene-2,7-disulfonate], the water solubility was 2500 µg/mL.
Consider `O=C([O-])c1c(Cl)c(Cl)c(Cl)c(Cl)c1-c1c2cc(Br)c(=O)c(Br)c-2oc2c(Br)c([O-])c(Br)cc12.[Na+].[Na+]` [Acid Red 92, disodium salt of 3,4,5,6-tetrachloro-2-(1,4,5,8-tetrabromo-6-hydroxy-3-oxanthene-9-yl) benzoic acid], for which the water solubility result was “greater than 10 g/L”.
In the case of `O=C([O-])C1=NN(c2ccc(S(=O)(=O)[O-])cc2)C(=O)C1N=Nc1ccc(S(=O)(=O)[O-])cc1.[Na+].[Na+].[Na+]` (centres unmarked) [Acid Yellow 23, trisodium salt of 4,5-dihydro-5-oxo-1-(4-sulfophenyl)-4-((4-sulfophenyl)azo)-1H-pyrazole-3−carboxylic acid], the “solubility in water” value is given as “readily soluble”.
